Assay: Inhibition of HTLV-1 protease using (RE(Edans)TKVLVVQPK(Dabsyl)R) as substrate by fluorescence assay
Parameters: species or system Human T-cell leukemia virus type I

| Ki [µM] | Structure (SMILES) |
| --- | --- |
| 7.9 | O=[N+]([O-])c1ccc(S(=O)(=O)N(Cc2ccccc2)[C@H]2CNC[C@@H]2N(Cc2ccccc2)S(=O)(=O)c2ccc([N+](=O)[O-])cc2)cc1 |
| 2.6 | Cc1ccccc1S(=O)(=O)N(Cc1ccccc1)[C@H]1CNC[C@@H]1N(Cc1ccccc1)S(=O)(=O)c1ccccc1C |
| 2.4 | O=S(=O)(c1ccccc1Cl)N(Cc1ccccc1)[C@H]1CNC[C@@H]1N(Cc1ccccc1)S(=O)(=O)c1ccccc1Cl |
| 172 | C=CCN([C@H]1CNC[C@@H]1N(CC=C)S(=O)(=O)c1ccccc1)S(=O)(=O)c1ccccc1 |
| 17.8 | C=C(C)CN([C@H]1CNC[C@@H]1N(CC(=C)C)S(=O)(=O)c1ccccc1)S(=O)(=O)c1ccccc1 |
| 0.015 | Nc1ccc(S(=O)(=O)N(Cc2ccccc2)[C@H]2CNC[C@@H]2N(Cc2ccccc2)S(=O)(=O)c2ccc(N)cc2)cc1 |
| > 200 | O=S(=O)(c1ccccc1)N(Cc1ccc(I)cc1)[C@H]1CNC[C@@H]1N(Cc1ccc(I)cc1)S(=O)(=O)c1ccccc1 |
| 11.6 | CC(C)=CCN([C@H]1CNC[C@@H]1N(CC=C(C)C)S(=O)(=O)c1ccccc1)S(=O)(=O)c1ccccc1 |
| 2 | O=S(=O)(c1ccccc1)N(Cc1ccccc1)[C@H]1CNC[C@@H]1N(Cc1ccccc1)S(=O)(=O)c1ccccc1 |
| > 250 | O=S(=O)(c1ccccc1)N(Cc1ccc(C(F)(F)F)cc1)[C@H]1CNC[C@@H]1N(Cc1ccc(C(F)(F)F)cc1)S(=O)(=O)c1ccccc1 |

From ChEMBL document CHEMBL3576846, “Privileged Structures Meet Human T-Cell Leukemia Virus-1 (HTLV-1): C2-Symmetric 3,4-Disubstituted Pyrrolidines as Nonpeptidic HTLV-1 Protease Inhibitors” (J Med Chem, 2015)
